Here are results for 12 compounds from patent publication US20260049072A1, “HETEROCYCLIC COMPOUND FOR INDUCING DEGRADATION OF MUTANT KRAS PROTEIN” (Astellas Pharma Inc., priority 2022, published 2026).

A word on the DC50: it is the midpoint of the concentration-degradation curve. The IC50 is the midpoint of a concentration-inhibition curve.

Structures are written as SMILES. Like-named read-outs stand apart in the source and are kept apart here.

Assay [1] has as its target T1, RAS G12D (Homo sapiens, UniProt P01116, G12D).
T1 construct: host or cells: AsPC-1 human pancreatic cancer cells
In words: RAS G12D degradation activity, Cell ELISA, AsPC-1. The following applies: AsPC-1 cells, 24 hours; read-out: DC50 (RAS G12D 50% degradation value). Format: cell-based. On the procedure:
Test Example 1-2: Evaluation of RAS G12D Degradation Activity on Human KRAS G12D Mutant-Positive Pancreatic Cancer Line AsPC-1
The RAS G12D degradation activities of subject compounds were evaluated in the same manner as in Test Example 1-1 by measuring the expression levels of RAS G12D by a Cell ELISA method.
AsPC-1 cells (ATCC, CRL-1682) were seeded at 36 μL per well on a 384-well plate to give 2.0×10^4 cells per well. As for the cell culture conditions, RPMI-1640 medium (from Sigma-Aldrich) containing 10% fetal bovine serum was used in the presence of 5% CO2 at 37° C.
The next day, the subject compounds (10 points having final concentrations in the range of 3 μM to 0.1 nM) and DMSO, which was the solvent for the subject compounds, as a negative control were diluted 100-fold with a fresh medium and were each added at 4 μL per well, followed by culturing for 24 hours.
The next day, the procedures from the immobilization of the cells to before the addition of the blocking solution were performed by the same methods as in Test Example 1-1. A blocking solution (Intercept Blocking Buffer; from LI-COR Biosciences) was added at 20 μL per well. After allowing the plate to stand for 30 minutes at room temperature, the supernatant was removed by centrifugation. A solution obtained by diluting an anti-R-actin antibody (1,000-fold dilution) with the blocking solution was added to the wells of the positive control as a primary antibody, and a solution obtained by diluting an anti-Ras (G12D Mutant Specific) antibody (Ras (G12D Mutant Specific) (D8H7) Rabbit mAb; from Cell Signaling Technology; 1,000-fold dilution) and an anti-3-actin antibody (1,000-fold dilution) with the blocking solution was added to the other wells as primary antibodies, each at 15 μL per well. The plate was allowed to stand overnight at 4° C.
The next day, the supernatant was removed by centrifugation, and the plate was washed with PBS. The supernatant was removed by centrifugation, and a solution obtained by diluting an anti-rabbit IgG antibody and an anti-mouse IgG antibody 1,000-fold with the blocking solution was added at 15 μL per well as secondary antibodies. After allowing the plate to stand at room temperature for an hour, the supernatant was removed by centrifugation, and the plate was washed with PBS. After removing the supernatant, the plate was dried as it was with air at room temperature for two hours or more, and the 700-nm and 800-nm fluorescent signals were measured with Aerius.
With the RAS G12D signaling value at the time of addition of DMSO corrected with the signaling value of β-actin taken as 0% and with the RAS G12D signaling value under the conditions of staining with the anti-β-actin antibody alone taken as 100%, the RAS G12D degradation rates were calculated. The 50% degradation values (DC50) were calculated by Sigmoid-Emax model nonlinear regression analysis.
Background: ELISA stands for enzyme-linked immunosorbent assay.

For assay [2], the system named is phosphorylation of ERK (Thr202/Tyr204). The assay can be described thus: ERK phosphorylation inhibitory activity, cell ELISA, PA-TU-8902. Format: cell-based. Conditions: Homo sapiens, read-out: IC50 (ERK phosphorylation inhibition). Here is the method:
Test Example 2: Evaluation of ERK Phosphorylation Inhibitory Activity on Human KRAS G12V Mutant-Positive Pancreatic Cancer Line PA-TU-8902
The ERK phosphorylation inhibitory activities of subject compounds were evaluated by measuring phosphorylation of the 202th threonine (Thr202) and the 204th tyrosine (Tyr204) of ERK located downstream of the KRAS signal by cell ELISA.
PA-TU-8902 cells were seeded at 36 µL/well on a 384-well plate (from Greiner bio-one) to give 5.0×10^3 cells per well. The cell culture conditions were the same conditions as in Test Example 1-1.
The next day, the subject compounds (9 points having final concentrations in the range of 3 μM to 0.3 nM), trametinib (MEK inhibitor) of a final concentration of 300 nM as a positive control and DMSO, which was the solvent for the subject compounds, as a negative control were diluted 100-fold with a fresh medium and were each added at 4 μL per well, followed by culturing for 24 hours. After culturing, a 30% glyoxal solution (40% glyoxal [from Nacalai Tesque] was diluted with PBS) was quickly added at 30 μL per well, and the plate was allowed to stand for an hour and 30 minutes at room temperature to thus immobilize the cells. Then, the plate was centrifuged (110×g, seven seconds, hereinafter centrifugation was performed under the same conditions unless otherwise specified) to remove the supernatant, and 0.1% Triton X-100-containing PBS was added at 20 μL per well. After allowing the plate to stand for 10 minutes at room temperature, the supernatant was removed by centrifugation, and the same operation was further repeated. Next, 0.5% SDS-containing PBS was added at 20 μL per well. The plate was allowed to stand at room temperature for 30 minutes and was then centrifuged to remove the supernatant. Subsequently, a blocking solution (Intercept Blocking Buffer) was added at 20 μL per well, and the plate was allowed to stand for an hour at room temperature. The supernatant was removed by centrifugation, and an ERK (Thr202/Tyr204) phosphorylation antibody (Phospho-p44/42 MAPK (Erk 1/2) (Thr202/Tyr204) (D13.14.4E) XP Rabbit mAb; from Cell Signaling Technology) diluted 2,500-fold with the blocking solution was added at 15 μL per well as a primary antibody. The plate was allowed to stand at 4° C. overnight.
The next day, the plate was centrifuged to remove the supernatant, and 0.05% Tween-20-containing PBS (from Thermo Scientific; 20×PBS Tween-20 was diluted 20-fold with ion exchange water and used) was added at 50 μL per well. The supernatant was removed by centrifugation to thus wash each well. The washing was performed three times in total. After washing, an anti-rabbit IgG antibody diluted 1,000-fold with the blocking solution was added at 15 μL per well as a secondary antibody, and the plate was allowed to stand for an hour at room temperature. The plate was centrifuged to remove the supernatant, and each well was washed three times with 0.05% Tween-20-containing PBS in the same manner as after the primary antibody reaction. Centrifugation after the third washing was performed at 171×g for 17 seconds. After removing the supernatant, the plate was dried as it was with air at room temperature for three hours or more, and the 800-nm fluorescent signals were measured with Aerius.
With the signaling value at the time of addition of DMSO taken as 0% inhibition and with the signaling value at the time of addition of 300 nM trametinib taken as 100% inhibition, the 50% inhibition values (IC50) were calculated by Sigmoid-Emax model nonlinear regression analysis.

[3] abbreviates: PaTu 8902, PA-TU-8902 cells, 24 hours, 100% = 300 nM trametinib.

T1 sequence (P01116 1-188 isoform P01116-2 G12D): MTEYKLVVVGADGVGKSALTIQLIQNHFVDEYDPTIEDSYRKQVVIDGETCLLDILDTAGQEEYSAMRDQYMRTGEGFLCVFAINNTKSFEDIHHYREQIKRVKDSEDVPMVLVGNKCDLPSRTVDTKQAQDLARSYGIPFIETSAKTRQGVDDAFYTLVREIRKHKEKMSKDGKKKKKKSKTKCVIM

For `CO[C@@H](C)COc1nc(NC2CN(C(=O)O[C@H]3C[C@@H](N(C)C)C3)C2)c2cc(C3CC3)c(-c3c(C)c(F)cc4[nH]ncc34)c(OCc3ccc(-c4cn([C@H](C(=O)N5C[C@H](O)C[C@H]5C(=O)N[C@@H](CO)c5ccc(N6CCOC6=O)cc5)C(C)C)nn4)cc3)c2n1` (atropisomer, axis not shown) [Example 4], the DC50 in assay [1] is 20 nM. Moreover, the IC50 in assay [2] (setting [3]) is 48 nM.
For `COC(C)(C)COc1cc(OC2CN(C(=O)N3CC(CN(C)C)C3)C2)c2cc(C3CC3)c(-c3c(C)c(F)cc4[nH]ncc34)c(OCc3ccc(-c4cn([C@H](C(=O)N5C[C@H](O)C[C@H]5C(=O)N[C@@H](CO)c5ccc(-n6cncn6)cc5)C(C)C)nn4)cc3)c2n1` (atropisomer, axis not shown) [Example 9], in assay [1], the half-maximal degradation concentration (DC50) was 5 nM. Moreover, in assay [2] (setting [3]), the IC50 is 12 nM.
For the compound `CO[C@@H](C)COc1nc(OC2CN(C(=O)NCCN(C)C)C2)c2cc(C3CC3)c(-c3c(C)c(F)cc4[nH]ncc34)c(OCc3ccc(-c4cn([C@H](C(=O)N5C[C@H](O)C[C@H]5C(=O)N[C@@H](CO)c5ccc(-c6scnc6C)cc5)C(C)C)nn4)cc3)c2n1` (atropisomer, axis not shown) [Example 17], in assay [1], the DC50 came to 11 nM. Further, in assay [2] (setting [3]), the IC50 was 23 nM.
With `CNCCNC(=O)N1CC(Oc2nc(OC[C@H](C)OC)nc3c(OCc4ccc(-c5cn([C@H](C(=O)N6C[C@H](O)C[C@H]6C(=O)N[C@@H](CO)c6ccc(-c7scnc7C)cc6)C(C)C)nn5)cc4)c(-c4c(C)c(F)cc5[nH]ncc45)c(C4CC4)cc23)C1` (atropisomer, axis not shown) [Example 18], the DC50 in assay [1] came out at 26 nM. Moreover, in assay [2] (setting [3]), the IC50 came to 33 nM.
With `CO[C@@H](C)COc1nc(N(C)[C@H]2CCN(C(=O)NCCN(C)C)C2)c2cc(C3CC3)c(-c3c(C)c(F)cc4[nH]ncc34)c(OCc3ccc(-c4cn([C@H](C(=O)N5C[C@H](O)C[C@H]5C(=O)N[C@@H](CO)c5ccc(-c6scnc6C)cc5)C(C)C)nn4)cc3)c2n1` (atropisomer, axis not shown) [Example 19], the DC50 in assay [1] was 4 nM. In addition, the IC50 in assay [2] (setting [3]) amounted to 31 nM.
For `CO[C@@H](C)COc1nc(N2CC(C#N)C2)c2cc(C3CC3)c(-c3c(C)c(F)cc4[nH]ncc34)c(OCc3ccc(-c4cn([C@H](C(=O)N5C[C@H](O)C[C@H]5C(=O)N[C@@H](CO)c5ccc(-c6scnc6C)cc5)C(C)C)nn4)cc3)c2n1` (atropisomer, axis not shown) [Example 20], the 50% degradation concentration (DC50) in assay [1] was determined as 16 nM. Also, the IC50 in assay [2] (setting [3]) was 34 nM.
Turning to `CO[C@@H](C)COc1nc(N2CCOCC2)c2cc(C3CC3)c(-c3c(C)c(F)cc4[nH]ncc34)c(OCc3ccc(-c4cn([C@H](C(=O)N5C[C@H](O)C[C@H]5C(=O)N[C@@H](CO)c5ccc(-c6scnc6C)cc5)C(C)C)nn4)cc3)c2n1` (atropisomer, axis not shown) [Example 21], the DC50 in assay [1] worked out at 8 nM. In addition, the IC50 in assay [2] (setting [3]) came to 19 nM.
Take `CO[C@@H](C)COc1nc(N[C@H]2C[C@H](OCCN(C)C)C2)c2cc(C3CC3)c(-c3c(C)c(F)cc4[nH]ncc34)c(OCc3ccc(-c4cn([C@H](C(=O)N5C[C@H](O)C[C@H]5C(=O)N[C@@H](CO)c5ccc(-c6scnc6C)cc5)C(C)C)nn4)cc3)c2n1` (atropisomer, axis not shown) [Example 23]: the DC50 in assay [1] is 1 nM. The half-maximal inhibitory concentration (IC50) in assay [2] (setting [3]) was found to be 107 nM.
Take `CO[C@@H](C)COc1nc(NC2CN(C(=O)N3CC(CN(C)C)C3)C2)c2cc(C3CC3)c(-c3c(C)c(F)cc4[nH]ncc34)c(OCc3ccc(-c4cn([C@H](C(=O)N5C[C@H](O)C[C@H]5C(=O)N[C@@H](CO)c5ccc(-c6scnc6C)cc5)C(C)C)nn4)cc3)c2n1` (atropisomer, axis not shown) [Example 25]: the DC50 in assay [1] worked out at 3 nM. Moreover, the IC50 in assay [2] (setting [3]) was 13 nM.
In the case of `CO[C@@H](C)COc1nc(NC2CN(C(=S)N3CC(CN(C)C)C3)C2)c2cc(C3CC3)c(-c3c(C)c(F)cc4[nH]ncc34)c(OCc3ccc(-c4cn([C@H](C(=O)N5C[C@H](O)C[C@H]5C(=O)N[C@@H](CO)c5ccc(-n6cncn6)cc5)C(C)C)nn4)cc3)c2n1` (atropisomer, axis not shown) [Example 26], the DC50 in assay [1] was 6 nM. The IC50 in assay [2] (setting [3]) worked out at 15 nM.
Regarding `CO[C@@H](C)COc1cc(OC2CN(C(=O)C3CN(C)C3)C2)c2cc(C3CC3)c(-c3c(C)c(F)cc4[nH]ncc34)c(OCc3ccc(-c4cn([C@H](C(=O)N5C[C@H](O)C[C@H]5C(=O)N[C@@H](CO)c5ccc(-n6cncn6)cc5)C(C)C)nn4)cc3)c2n1` (atropisomer, axis not shown) [Example 42], the DC50 in assay [1] is 6 nM. Also, the IC50 in assay [2] (PaTu 8902, 24 h) is 14 nM.
For `CO[C@@H](C)COc1nc(NC2CN(C(=O)O[C@H]3C[C@@H](N(C)C)C3)C2)c2cc(C3CC3)c(-c3c(C)c(F)cc4[nH]ncc34)c(OCc3ccc(-c4cn([C@H](C(=O)N5C[C@H](O)C[C@H]5C(=O)N[C@@H](CO)c5ccc(-c6ocnc6C)cc5)C(C)C)nn4)cc3)c2n1` (atropisomer, axis not shown; (M)) [Example 1, (1s,3R)-3-(dimethylamino)cyclobutyl 3-({(7M)-6-cyclopropyl-7-(6-fluoro-5-methyl-1H-indazol-4-yl)-8-{[4-(1-{(2S)-1-[(2S,4R)-4-hydroxy-2-({(1R)-2-hydroxy-1-[4-(4-methyl-1,3-oxazol-5-yl)phenyl]ethyl}carbamoyl)pyrrolidin-1-yl]-3-methyl-1-oxobutan-2-yl}-1H-1,2,3-triazol-4-yl)phenyl]methoxy}-2-[(2S)-2-methoxypropoxy]quinazolin-4-yl}amino)azetidine-1-carboxylate], in assay [1], the DC50 amounted to 5 nM. Further, the IC50 in assay [2] (setting [3]) was 19 nM.
